Measured values as given in patent US8642352B2, “Methods and systems for detection of stoichiometry by Förster resonance energy transfer” (California Institute of Technology, priority 2009, dated 2014).

Tests used:
α4β2 nAChRs [1] = biological target: T1, α4β2 nAChRs (Mus musculus, UniProt O70174+Q9ERK7)
Method: (§1) Live cells are imaged using the Eclipse C1si laser scanning confocal microscope. Full emission spectra images are acquired in 5 nm bins between 450 nm and 610 nm, linearly unmixed using reference spectra from samples expressing solely the donor- or acceptor-tagged fusion constructs to unambiguously separate the donor and acceptor signal from each pixel of the spectral images. Transfections of cells expressing only the donor- or acceptor-tagged fusion protein are performed for every imaging session to control for pixel saturation and spectral bleedthrough (SBT). Where appropriate, non-fluorescent subunit cDNAs are included in the transfection to ensure the faithful expression and subcellular localization of the single fluorescent species. Control samples expressing only the donor-fused constructs are imaged with the appropriate laser line and unmixed with acceptor and donor emission spectra. The unmixed acceptor images are termed the FRETd channel, and the fluorescence intensity of each pixel is termed (IFRETd). The donor fluorophore images are the “Donor” channel and pixel intensities are described by Idonor. A montage of all the FRETd channel images and a second montage of all the Donor channel images are assembled and compiled into an image stack called the “Donor SBT stack” in the order FRETd channel, Donor channel.
(§2) Two spectral images of each cell expressing only the acceptor-fused constructs are acquired, the first excited by the donor specific laser line and the second with the acceptor specific laser line. The acceptor fluorophore signal is unmixed from each image.

α4β2 V287L nAChR [2] = biological target: T2, α4β2 V287L nAChR (Mus musculus, UniProt O70174+Q9ERK7, V287L)
Method: (§3) In the experimental procedures illustrated in the present disclosure N2a cells were cultured at 37° C. in 95% air, 5% CO2 in medium composed of 44.5% DMEM, 44.5% OptiMEM1, 5% FBS, 100 I.U./ml penicillin and 100 μg/ml streptomycin. For all experiments, cells were plated onto poly-d-lysine coated 35 mm culture dishes with 14 mm glass bottoms. Transfections were performed using a modification of the manufacturer's Lipofectamine and Plus reagent protocol, resulting in non-saturated expression levels of nAChRs (Imoukhuede et al., 2009; Moss et al., 2009; Son et al., 2009). Nicotine at 1 μM final concentration was added to the appropriate dishes (nicotine was replenished with each media change).
(§4) N2a cells were visualized at room temperature in extracellular buffer, 48 h after transfection. A series of lambda stack X-Y images were collected with the Eclipse C1si laser scanning confocal microscope according to procedures exemplified in Example 5. Dequenching of CFP fluorescence during incremental photobleaching of YFP was performed and analyzed as previously described (Nashmi et al., 2003; Drenan et al., 2008). FRET efficiency (E) was calculated according to (Equation 1).
(§5) IDA represents the normalized fluorescence intensity of the donor (100%) in the presence of non-bleached acceptor. ID represents the normalized fluorescence intensity of the donor following 100% photobleach of the acceptor. The ID value was extrapolated from a scatter plot of the percentage increase of donor intensity versus the percentage decrease of acceptor intensity for each cell (Nashmi et al., 2003).
(§6) A series of experiments were carried out with WT nAChR and ADFLE mutated nAChR were performed using image acquisition by FRET acceptor photobleach to detect nAChR stoichiometry before and after contact with nicotine.

WT α4β2 nAChRs = WT α4β2 nAChRs (Mus musculus, UniProt O70174+Q9ERK7)
Method: as §3, §4, §5, §6

ADNFLE α4β2 receptors = system: ADNFLE α4β2 receptors
Method: The data on comparative stoichiometry from acceptor photobleach FRET, pixel-based FRET, and FIR measurements obtained from the experiments exemplified in the above examples and in the related figures can be summarized. In particular data gathered for the various subunit transfection ratios, various mutants, and various labeling strategies were analyzed by the relation in FIG. 3D or by Equations 13 and 14, as appropriate.
The effects of nicotine can also be summarized; in each case, the experiment compared incubation vs. saline.

α4β2 receptors = α4β2 receptors (Mus musculus, UniProt O70174+Q9ERK7)
Source text: Cells were transfected with membrane-targeted mCherry, α4GFP, and unlabeled β2. Left panels, mCherry; middle panels, α4GFP; right panels, overlay. […] Scale bars, 5 μm.
All results from microscopy analysis will be correlated to receptor function using whole cell electrophysiology.

α4β2 V287L nAChR [3] = biological target: T2, α4β2 V287L nAChR; details: 1 μM nicotine for 48 h
Source text: (§7) Live cells were imaged using the Eclipse C1si laser scanning confocal microscope according to procedures exemplified in Example 5. Full emission spectra images are acquired in 5 nm bins between 450 nm and 610 nm, linearly unmixed using reference spectra from samples expressing solely the donor- or acceptor-tagged fusion constructs to unambiguously separate the donor and acceptor signal from each pixel of the spectral images.
as §1, §2

α4 S248F β2 nAChR = α4 S248F β2 nAChR (Mus musculus, UniProt O70174+Q9ERK7, S282F); details: α4 subunits carrying S248F and XFP, nicotine 1 μM, 48 h
Source text: as §7, §1, §2

α4β2 nAChRs [4] = biological target: T1, α4β2 nAChRs; details: α4:β2 cDNA ratio 1:1, exposed to nicotine, N2a cells
Method: as §3

α4β2 nAChRs [5] = biological target: α4β2 nAChRs (Homo sapiens, UniProt P17787+P43681); details: α4:β2 cDNA ratio 1:1, nicotine; Nelson et al., 2003; cited from earlier work
α4β2 nAChRs (Homo sapiens, UniProt P17787+P43681), sequence (P43681 29-627 limits assumed): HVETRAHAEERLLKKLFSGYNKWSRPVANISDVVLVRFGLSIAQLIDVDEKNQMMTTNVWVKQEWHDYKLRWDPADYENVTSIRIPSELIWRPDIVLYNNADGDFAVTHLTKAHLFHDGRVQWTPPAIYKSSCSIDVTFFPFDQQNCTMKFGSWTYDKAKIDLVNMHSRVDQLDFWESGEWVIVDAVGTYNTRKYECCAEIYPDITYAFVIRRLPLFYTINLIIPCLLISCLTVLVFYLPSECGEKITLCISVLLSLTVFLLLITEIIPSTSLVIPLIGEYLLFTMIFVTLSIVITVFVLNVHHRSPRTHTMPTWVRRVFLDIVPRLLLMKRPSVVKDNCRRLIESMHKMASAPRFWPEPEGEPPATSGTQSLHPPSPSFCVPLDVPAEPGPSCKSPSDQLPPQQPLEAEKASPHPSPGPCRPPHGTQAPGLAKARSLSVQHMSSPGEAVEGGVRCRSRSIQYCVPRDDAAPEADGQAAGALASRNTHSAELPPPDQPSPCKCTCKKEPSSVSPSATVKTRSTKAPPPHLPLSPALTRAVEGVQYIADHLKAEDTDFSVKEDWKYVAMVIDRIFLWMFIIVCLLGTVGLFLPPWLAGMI
α4β2 nAChRs (Homo sapiens, UniProt P17787+P43681), sequence (P17787 26-502): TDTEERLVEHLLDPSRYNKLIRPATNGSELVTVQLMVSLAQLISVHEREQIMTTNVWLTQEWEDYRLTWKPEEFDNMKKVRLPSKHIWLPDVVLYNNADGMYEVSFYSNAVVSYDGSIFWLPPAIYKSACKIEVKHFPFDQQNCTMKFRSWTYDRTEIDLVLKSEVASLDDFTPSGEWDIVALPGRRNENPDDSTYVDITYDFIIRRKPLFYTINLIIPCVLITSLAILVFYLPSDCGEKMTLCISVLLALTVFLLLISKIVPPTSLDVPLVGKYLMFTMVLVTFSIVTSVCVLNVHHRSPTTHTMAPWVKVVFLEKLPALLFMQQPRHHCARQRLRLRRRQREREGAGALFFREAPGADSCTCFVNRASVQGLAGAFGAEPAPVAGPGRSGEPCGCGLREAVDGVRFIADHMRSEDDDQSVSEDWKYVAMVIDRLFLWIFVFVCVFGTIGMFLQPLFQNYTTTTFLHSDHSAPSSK

T1 sequence (O70174 31-629): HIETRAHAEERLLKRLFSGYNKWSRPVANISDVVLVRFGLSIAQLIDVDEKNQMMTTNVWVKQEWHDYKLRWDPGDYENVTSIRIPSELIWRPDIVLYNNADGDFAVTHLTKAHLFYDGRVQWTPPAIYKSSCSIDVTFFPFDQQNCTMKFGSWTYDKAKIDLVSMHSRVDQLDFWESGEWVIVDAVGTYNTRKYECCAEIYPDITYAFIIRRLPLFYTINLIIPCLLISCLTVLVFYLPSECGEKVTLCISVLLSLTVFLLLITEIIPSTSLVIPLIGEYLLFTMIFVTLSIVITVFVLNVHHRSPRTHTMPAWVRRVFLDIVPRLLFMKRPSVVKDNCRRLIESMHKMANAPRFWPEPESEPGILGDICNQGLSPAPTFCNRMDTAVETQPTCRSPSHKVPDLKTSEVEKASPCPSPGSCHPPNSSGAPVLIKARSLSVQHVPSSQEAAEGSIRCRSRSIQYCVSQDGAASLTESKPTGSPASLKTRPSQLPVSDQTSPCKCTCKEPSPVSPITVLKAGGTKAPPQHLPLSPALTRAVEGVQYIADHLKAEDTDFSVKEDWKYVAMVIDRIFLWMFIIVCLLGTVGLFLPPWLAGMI
T1 sequence (Q9ERK7 26-501): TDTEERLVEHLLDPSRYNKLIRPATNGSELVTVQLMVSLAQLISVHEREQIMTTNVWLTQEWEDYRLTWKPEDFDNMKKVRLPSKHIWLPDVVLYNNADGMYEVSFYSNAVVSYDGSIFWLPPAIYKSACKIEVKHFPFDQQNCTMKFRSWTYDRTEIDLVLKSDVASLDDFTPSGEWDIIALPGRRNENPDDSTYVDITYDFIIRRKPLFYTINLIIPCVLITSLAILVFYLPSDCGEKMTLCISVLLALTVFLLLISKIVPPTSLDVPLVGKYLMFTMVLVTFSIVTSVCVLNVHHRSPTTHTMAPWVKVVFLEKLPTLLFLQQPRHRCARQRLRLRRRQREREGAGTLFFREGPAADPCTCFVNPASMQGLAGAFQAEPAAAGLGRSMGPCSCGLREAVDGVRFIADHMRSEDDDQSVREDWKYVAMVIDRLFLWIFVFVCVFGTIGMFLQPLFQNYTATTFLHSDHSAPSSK
T2 sequence (O70174 31-629): as the sequence (O70174 31-629) above
T2 sequence (Q9ERK7 26-501 V287L): as the sequence (Q9ERK7 26-501) above, with V262L counted along it
WT α4β2 nAChRs, sequence (O70174 31-629): as the sequence (O70174 31-629) above
WT α4β2 nAChRs, sequence (Q9ERK7 26-501): as the sequence (Q9ERK7 26-501) above
α4β2 receptors, sequence (O70174 31-629): as the sequence (O70174 31-629) above
α4β2 receptors, sequence (Q9ERK7 26-501): as the sequence (Q9ERK7 26-501) above
α4 S248F β2 nAChR, sequence (O70174 31-629 S282F): as the sequence (O70174 31-629) above, with S252F counted along it
α4 S248F β2 nAChR, sequence (Q9ERK7 26-501): as the sequence (Q9ERK7 26-501) above

**Q.** Which results are given for `CN1CCCC1c1cccnc1` (centres unmarked) [Nicotine, nicotine]?
**A.** Receptor population in the Golgi (α4β2 nAChRs [1]; trans-Golgi ROI (GalT-CFP), 1 μM nicotine, 4 h post-exposure): pure (α4)2(β2)3 receptor population; Duration of the stoichiometry switch post nicotine exposure (α4β2 nAChRs [1]; whole cell NFRET): at least 24 h; Receptor population expressing the high-sensitivity (α4)2(β2)3 stoichiometry (α4β2 nAChRs [1]; whole cell NFRET distribution, 4 h exposure to a saturating dose (1 μM) of nicotine): 80%; FRET efficiency of nicotine-treated versus unexposed cells (α4β2 V287L nAChR [2]; cells transfected with α4XFP β2 V287L): lower FRET efficiency; FRET efficiency after incubation in nicotine compared to control cells (α4β2 V287L nAChR [2]; cells transfected with α4 and β2 V287L XFP subunits): significantly higher; Shift in stoichiometry in the presence of nicotine (α4β2 V287L nAChR [2]; β2 V287L ADNFLE mutation): shift in stoichiometry towards (α4)2(β2)3; Shift of WT receptor stoichiometry on incubation in nicotine (WT α4β2 nAChRs; 1:1 cDNA α4XFP:β2 or α4:β2XFP, nicotine 1 μM): shifts the receptor population toward the (α4)2(β2)3 stoichiometry; Percent of (α4)3(β2)2 for WT nAChRs, FRET (WT α4β2 nAChRs; α4:β2 cDNA ratio 1:1, exposed to nicotine, N2a cells): 61 ± 6%; Percentage of (α4)3(β2)2 ADNFLE receptors after nicotine incubation relative to saline incubation (ADNFLE α4β2 receptors; at least five experiments): 0.8; Ratio nicotine/saline of percentage of (α4)3(β2)2 ADNFLE receptors, all cases (ADNFLE α4β2 receptors; each of at least five experiments): < 1; Upregulation at the plasma membrane by TIRFM (α4β2 receptors; 4 h of 1 μM nicotine exposure): sufficient to cause upregulation at the plasma membrane; α4GFP fluorescence in TIRF images (α4β2 receptors; incubation for 48 h in nicotine, α4GFP plus unlabeled β2): much brighter; α4 intersubunit FRET efficiency (α4β2 V287L nAChR [3]; α4XFP plus β2V287L): completely back to WT levels; Mean β2 intersubunit FRET efficiency (α4β2 V287L nAChR [3]; α4 plus β2(V287L)XFP): increased to a level even higher than the control cells; Shift of receptor population stoichiometry (α4 S248F β2 nAChR): shifted the population toward the (α4)2(β2)3 stoichiometry; Percent of (α4)3(β2)2 for WT nAChRs, FIR (α4β2 nAChRs [4]): 73%; Percent of (α4)3(β2)2 for WT nAChRs, Reported (α4β2 nAChRs [5]): 68 ± 5%
